Patent US20110034504A1, “AGENT FOR PREVENTING AND/OR TREATING VASCULAR DISEASES” (Astellas Pharma Inc., priority 2008, published 2011)
Read-outs that look alike come from different tables or passages of the source.

Key:
[1] = clopidogrel combined with aspirin, cited from earlier work
gastric mucosa = assay: influence of drugs upon gastric mucosa in normal guinea pigs; type: in vivo, guinea pig; details: for gastric mucosal lesion (length): 3 hours after administration
Description: Examination of the influence of drugs exerting upon gastric mucosa was carried out using normal guinea pigs. Using 0.5% methyl cellulose solution as the vehicle, clopidogrel solution, aspirin suspension and Compound A suspension were prepared. […] Also, in the evaluation at the time of concomitant administration of clopidogrel with aspirin or Compound A, in addition to 3 mg/kg of clopidogrel, 300 mg/kg of aspirin was simultaneously administered in the aspirin concomitant use group, and 100 mg/kg of Compound A in the Compound A concomitant use group. After 3 hours of the administration, each guinea pig was sacrificed by deep anesthesia with carbon dioxide, and the stomach was quickly removed. The gullet part of the extracted stomach was ligated, 15 ml of 4% neutral buffered formalin solution was injected from the pylorus part, and then light fixation was carried out by immersing in the same solution for about 1 hour after ligating the pylorus part. Thereafter, the stomach was cut open along the greater curvature of stomach, and the length (mm) of gastric mucosal lesion was measured using a stereoscopic microscope. Statistical analysis between respective groups was performed by using Wilcoxon rank sum test.

[2] = thromboembolism patients, CAPRIE trial; cited from earlier work
[3] = test system: iron chloride-induced thrombus (abdominal aorta); assay: ferric chloride-induced thrombosis model in guinea pigs; type: in vivo, guinea pig; details: for total protein content of thrombi, comparison with control (vehicle administration group): single drug, Student's t-test; for total protein content of thrombi, concomitant administration compared with single administration groups: oral
Description: Verification of anti-thrombotic action was carried out using a ferric chloride-induced thrombosis model in guinea pigs, by partially modifying the experiment described in “Thrombosis Research” (1990, vol. 60, p. 269-280). Using 0.5% methyl cellulose solution as the vehicle, clopidogrel solution, aspirin suspension and Compound A suspension were prepared. […] Thrombus was induced by the following procedure. Each guinea pig was laparotomized while under pentobarbital anesthesia, and abdominal aorta was carefully detached from the surrounding tissues. […] The filter paper was removed 10 minutes thereafter, followed by 45 minutes of standing under subdued light. Both ends of the injured part of the detached blood vessel were closed with clips, and inside thereof was cut out using scissors to collect the blood vessel. By cutting open the thus collected blood vessel vertically, the thrombi formed in the blood vessel were taken out using a pair of tweezers and dissolved in 0.5 mol/1 of NaOH. Protein concentration was determined using DC protein assay kit (mfd. by BIO-RAD Laboratories) and in accordance with the protocols. Using total protein content of the formed thrombi as the index of anti-thrombotic effect, Statistical analysis between respective groups was performed by using Student's t-test.

[4] = combination use of aspirin and clopidogrel, cited from earlier work
COX-2 = molecular target: T1, COX-2 (Cavia porcellus, UniProt P70682); assay: LPS-induced Prostaglandin E2 (PGE2) production inhibition using guinea pig whole blood after oral administration; type: in vivo; details: read-out: inhibitory rate of LPS-induced PGE2 production relative to the vehicle group
T1 construct: The sodium citrate-added whole blood was mixed with LPS to a final concentration of 100 μg/ml, incubated at 37° C. for 24 hours; from tissue; host or cells: citrated whole blood of male Hartley guinea pigs, stimulated with LPS
T1 sequence (P70682 18-604): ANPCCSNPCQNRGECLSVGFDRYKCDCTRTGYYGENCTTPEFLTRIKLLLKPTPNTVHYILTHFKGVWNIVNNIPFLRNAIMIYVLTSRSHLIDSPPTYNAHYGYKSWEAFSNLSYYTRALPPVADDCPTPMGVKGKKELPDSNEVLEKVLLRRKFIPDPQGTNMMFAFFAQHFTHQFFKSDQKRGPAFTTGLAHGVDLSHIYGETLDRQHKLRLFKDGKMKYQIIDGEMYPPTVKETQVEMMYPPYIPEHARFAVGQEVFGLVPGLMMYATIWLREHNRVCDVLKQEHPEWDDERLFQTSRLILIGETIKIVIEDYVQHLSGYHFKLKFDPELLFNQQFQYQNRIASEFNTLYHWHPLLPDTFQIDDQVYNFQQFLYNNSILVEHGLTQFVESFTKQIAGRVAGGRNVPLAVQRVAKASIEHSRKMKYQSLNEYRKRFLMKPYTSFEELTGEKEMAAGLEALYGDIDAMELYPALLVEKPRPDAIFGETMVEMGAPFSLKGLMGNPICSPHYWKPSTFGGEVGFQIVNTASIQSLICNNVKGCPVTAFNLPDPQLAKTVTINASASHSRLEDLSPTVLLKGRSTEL
Description: Examination on the selectivity of inhibitory effect on Cyclooxygenase (COX)-½ was carried out based on, as indexes, the coagulation-induced Thromboxane B2 (TXB2) production inhibition (COX-1 inhibition) and the LPS-induced Prostaglandin E2 (PGE2) production inhibition using guinea pig whole blood. As the vehicle, 0.5% methyl cellulose solution was used. […] On the other hand, as the vehicle administration group, clopidogrel was orally administered 2 hours before the blood collection, and the vehicle 1 hour before thereof. Each guinea pig was laparotomized while under ether anesthesia, 4 ml of blood was collected from the abdominal aorta, and 1 ml thereof was put into an anticoagulant-un-added tube and allowed to stand still and then 3 ml thereof was put into a tube charged with 300 μl of sodium citrate, followed by tipping mixing. […] PGE2 concentration in the buffer was measured using a PGE2 EIA Kit (mfd. by Cayman Chemicals). Inhibitory rate of each of the TXB2 concentration and PGE2 concentration relative to the vehicle group was calculated using a calculation formula [100-(drug administration group concentration/solvent administration concentration)×100 (%)], and significant difference from the vehicle group was tested using Student's t-test.

COX-1 = molecular target: T2, COX-1 (Cavia porcellus, UniProt H0V9X9); assay: coagulation-induced Thromboxane B2 (TXB2) production inhibition using guinea pig whole blood after oral administration; type: in vivo; details: concomitant use with 1 mg/kg of clopidogrel, read-out: inhibitory rate of coagulation-induced TXB2 production relative to the vehicle group
T2 construct: from tissue; host or cells: whole blood from the abdominal aorta of male Hartley guinea pigs
T2 sequence (H0V9X9 25-553): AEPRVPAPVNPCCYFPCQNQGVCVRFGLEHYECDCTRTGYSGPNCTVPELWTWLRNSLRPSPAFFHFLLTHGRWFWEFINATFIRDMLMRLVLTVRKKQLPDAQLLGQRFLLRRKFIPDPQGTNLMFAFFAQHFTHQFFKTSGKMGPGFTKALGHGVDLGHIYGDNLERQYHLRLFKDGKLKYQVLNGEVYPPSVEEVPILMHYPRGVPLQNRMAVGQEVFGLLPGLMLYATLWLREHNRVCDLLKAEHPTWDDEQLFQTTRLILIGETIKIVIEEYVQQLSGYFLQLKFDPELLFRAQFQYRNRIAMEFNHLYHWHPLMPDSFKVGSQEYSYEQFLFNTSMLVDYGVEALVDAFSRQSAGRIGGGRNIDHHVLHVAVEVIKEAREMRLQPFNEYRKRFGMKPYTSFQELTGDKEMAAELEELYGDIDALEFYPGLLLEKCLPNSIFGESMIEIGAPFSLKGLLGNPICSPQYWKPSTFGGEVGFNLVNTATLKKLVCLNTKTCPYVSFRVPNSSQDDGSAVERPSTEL
Description: Examination on the selectivity of inhibitory effect on Cyclooxygenase (COX)-½ was carried out based on, as indexes, the coagulation-induced Thromboxane B2 (TXB2) production inhibition (COX-1 inhibition) and the LPS-induced Prostaglandin E2 (PGE2) production inhibition using guinea pig whole blood. As the vehicle, 0.5% methyl cellulose solution was used. By dissolving clopidogrel and suspending aspirin and Compound A therein, clopidogrel was orally administered 2 hours before the blood collection, and aspirin and Compound A 1 hour before thereof, to male Hartley guinea pigs which had been subjected to fasting (drug administered groups). On the other hand, as the vehicle administration group, clopidogrel was orally administered 2 hours before the blood collection, and the vehicle 1 hour before thereof. […] TXB2 concentration in the serum was measured using a TXB2 EIA Kit (mfd. by Cayman Chemicals). […] PGE2 concentration in the buffer was measured using a PGE2 EIA Kit (mfd. by Cayman Chemicals). Inhibitory rate of each of the TXB2 concentration and PGE2 concentration relative to the vehicle group was calculated using a calculation formula [100-(drug administration group concentration/solvent administration concentration)×100 (%)], and significant difference from the vehicle group was tested using Student's t-test.

[5] = cited from earlier work

In the case of `COC(=O)[C@H](c1ccccc1Cl)N1CCc2sccc2C1` [clopidogrel, methyl (+)-(S)-2-(2-chlorophenyl)-2-(4,5,6,7-tetrahydrothieno[3,2-c]pyridin-5-yl)acetate], the “reduction of event ratio in combination use group in comparison with the aspirin alone group” value ([1]; non-ST increase ACS patients) is given as 20%, the “hemorrhagic side effects in the combination use group” value [1] is given as “significantly increased” and the “gastric mucosal lesion (length)” value (gastric mucosa; 100 mg/kg oral, single drug) is given as “a clear action for gastric mucosa cannot be confirmed”. For the same compound, the event onset ratio [2] was 5.83 %/year, the “lowering of the event onset ratio based on aspirin” value [2] was 8.7% and the “total protein content of thrombi, comparison with control (vehicle administration group)” value ([3]; clopidogrel 1 mg/kg orally 2 hours before thrombus induction) was “statistically significant difference”. For the same compound, the primary prevention effect ([4]; low risk patients) was “usefulness of the combination group was not found” and the “secondary thrombotic event inhibition effect” value ([4]; patients of ischemic diseases) was “significant secondary thrombotic event inhibition effect”.

For `COc1ccc(-c2nc(OC)nn2-c2ccc(OC)cc2)cc1` [Compound A, 3-methoxy-1,5-bis(4-methoxyphenyl)-1H-1,2,4-triazole], the “gastric mucosal lesion (length)” value (gastric mucosa; 100 mg/kg oral, single drug) was “a clear action for gastric mucosa cannot be confirmed”, the “gastric mucosal lesion (length)” value (gastric mucosa; Compound A 100 mg/kg concomitantly with clopidogrel 3 mg/kg, oral) was “a clear action for gastric mucosa cannot be confirmed” and the “total protein content of thrombi, compared with concomitant administration group of clopidogrel and aspirin” value ([3]; 3 mg/kg Compound A + 1 mg/kg clopidogrel vs 300 mg/kg aspirin + 1 mg/kg clopidogrel) was “statistically significant difference from a concomitant administration group of clopidogrel and aspirin”. For the same compound, the “total protein content of thrombi, concomitant administration compared with single administration groups” value ([3]; 3 mg/kg Compound A concomitantly with 1 mg/kg clopidogrel) was “statistically significant difference from the clopidogrel single administration group (CLO 1) and Compound A single administration group (Comp A 3)”, the “total protein content of thrombi, comparison with control (vehicle administration group)” value ([3]; Compound A 3 mg/kg orally 1 hour before thrombus induction) was “statistically significant difference” and the inhibition at 3 mg/kg (COX-2; 3 mg/kg Compound A orally, concomitant use with 1 mg/kg of clopidogrel) was 10.1%. For the same compound, the inhibition at 3 mg/kg (COX-1; 3 mg/kg Compound A orally) was 82.1%.

In the case of `CC(=O)Oc1ccccc1C(=O)O` [aspirin], the event inhibition ratio ([5]; 75 mg or less, meta-analysis) is given as 13%, the event inhibition ratio ([5]; administration of from 75 to 150 mg, meta-analysis) is given as 32% and the event inhibition ratio ([5]; administration of from 160 to 325 mg, meta-analysis) is given as 26%. For the same compound, the event inhibition ratio ([5]; administration of from 500 to 1500 mg, meta-analysis) was 19%, the event inhibition ratio ([5]; high risk patients, low dose aspirin) was “about 25%” and the “gastric mucosal lesion (length)” value (gastric mucosa; 300 mg/kg oral, single drug) was “Gastric mucosal damage was clearly formed”. For the same compound, the “gastric mucosal damage at concomitant administration with clopidogrel compared with aspirin alone” value (gastric mucosa; aspirin 300 mg/kg + clopidogrel 3 mg/kg vs aspirin 300 mg/kg alone) was “becomes worse”, the “gastric mucosal lesion (length)” value (gastric mucosa; aspirin 300 mg/kg concomitantly with clopidogrel 3 mg/kg, oral) was “Gastric mucosal damage was also clearly induced” and the event onset ratio [2] was 5.32 %/year. For the same compound, the “total protein content of thrombi, concomitant administration compared with single administration groups” value ([3]; 300 mg/kg aspirin concomitantly with 1 mg/kg clopidogrel) was “significant difference from the clopidogrel single administration group (CLO 1), but a significant difference was not found in comparison with the aspirin single administration group (ASA 300)”, the “total protein content of thrombi, comparison with control (vehicle administration group)” value ([3]; aspirin 300 mg/kg orally 1 hour before thrombus induction) was “statistically significant difference” and the inhibition at 300 mg/kg (COX-2) was 90.4%. For the same compound, the inhibition at 300 mg/kg (COX-1; 300 mg/kg aspirin orally) was 100%.
